Consider 1 compound from paper PMC4933878 (2016).

The subject of this assay is c-myc pu22 DNA (c-myc G-quadruplex DNA) (DNA, G4) TGGGGAGGGTGGGGAGGGTGGGGAAGG
Kind of assay: UV-vis absorption titration (hypochromism). The note with it: 100 mM KCl; Tris-HCl, pH 7.2; 20 μM compound; hypochromism MLCT 14.6%, IL 38.9%; constant not given.

Consider `C(#Cc1ccc(-c2nc3c4cccnc4c4ncccc4c3[nH]2)cc1)c1ccccc1.[Ru+2].c1ccc(-c2ccccn2)nc1.c1ccc(-c2ccccn2)nc1`, for which the binding result is on record as “yes”.
